Patent publication US9326513B2, “Fungicidal compositions” (Syngenta Participations AG, priority 2011, dated 2016)

Tests used:
Assay type in all cases: in vivo
Conditions in all cases: foliar, compared to untreated control leaf disks, read-out: disease control
[1] = tested on: Pyrenophora teres; assay: Pyrenophora teres / barley / leaf disc preventative (net blotch)
Text: Pyrenophora teres/Barley/Leaf Disc Preventative (Net Blotch) Barley leaf segments cv. Hasso were placed on agar in a multiwell plate (24-well format) and sprayed with the formulated test compound diluted in water. The leaf segments were inoculated with a spore suspension of the fungus 2 days after application.

[2] = tested on: Puccinia recondita f. sp. tritici; assay: Puccinia recondita f. sp. tritici / wheat / leaf disc preventative (brown rust)
Text: Puccinia recondita f. sp. tritici/Wheat/Leaf Disc Preventative (Brown Rust) Wheat leaf segments cv. Kanzler were placed on agar in multiwell plates (24-well format) and sprayed with the formulated test compound diluted in water. The leaf disks were inoculated with a spore suspension of the fungus 1 day after application.

[3] = tested on: Blumeria graminis f. sp. tritici (Erysiphe graminis f. sp. tritici); assay: Blumeria graminis f. sp. tritici / wheat / leaf disc preventative (powdery mildew on wheat)
Outline: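 Wheat leaf segments (cv. Kanzler) on agar were sprayed with formulated compound in water, inoculated with powdery mildew 1 day later, and kept at 20° C, 60% rh (24 h dark, then 12 h light/12 h dark). Percent disease control versus untreated scored 6-8 days after application; tested at 200 ppm.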

[4] = tested on: Puccinia recondita f. sp. tritici; assay: Puccinia recondita f. sp. tritici / wheat / leaf disc curative (brown rust)
Method: Puccinia recondita f. sp. tritici/Wheat/Leaf Disc Curative (Brown Rust) Wheat leaf segments cv. Kanzler are placed on agar in multiwell plates (24-well format). The leaf segments are inoculated with a spore suspension of the fungus. Plates were stored in darkness at 19° C. and 75% rh. The formulated test compound diluted in water was applied 1 day after inoculation.

Measured: pest or weed control at 200 ppm

CCN(C)/C=N/c1cc(Br)c(OC(C)c2cc(C)cc(C)c2)nc1C (stereo not drawn) [Q.203]
≥ 50%: [1] | [2] | [3] | [4]

CCN(C)/C=N/c1cc(Br)c(OC(C)c2ccc(F)c(F)c2)nc1C (stereo not drawn) [Q.204]
≥ 50%: [1] | [2] | [3] | [4]

CCN(C)/C=N/c1cc(Br)c(OCc2ccc(F)c(F)c2)nc1C [Q.206]
≥ 50%: [1] | [2] | [3] | [4]

CCN(C)/C=N/c1cc(Br)c(OCc2ccsc2)nc1C [Q.208]
≥ 50%: [1] | [2] | [3] | [4]

CCN(C)/C=N/c1cc(Br)c(OCc2ccc3ncccc3c2)nc1C [Q.209]
≥ 50%: [1] | [2] | [3] | [4]

CCN(C)/C=N/c1cc(Br)c(OC2CCC(OC(=O)C(C)C)CC2)nc1C (stereo not drawn) [Q.211]
≥ 50%: [1] | [2] | [3] | [4]

C=CCOC1CCC(Oc2nc(C)c(/N=C/N(C)CC)cc2Br)CC1 (stereo not drawn) [Q.212]
≥ 50%: [1] | [2] | [3] | [4]

CCN(C)/C=N/c1cc(OC)c(OC(C)c2cc(F)cc(F)c2)nc1C (stereo not drawn) [Q.214]
≥ 50%: [1] | [2] | [3] | [4]

CCN(C)/C=N/c1cc(C(F)F)c(OC(C)c2cc(F)cc(F)c2)nc1C (stereo not drawn) [Q.215]
≥ 50%: [1] | [2] | [3] | [4]

CCN(C)/C=N/c1cc(C2CC2)c(OC(C)c2cc(F)cc(F)c2)nc1C (stereo not drawn) [Q.216]
≥ 50%: [1] | [2] | [3] | [4]

CCN(C)/C=N/c1cc(Br)c(OC(C)Cc2cc(F)cc(F)c2)nc1C (stereo not drawn) [Q.217]
≥ 50%: [1] | [2] | [3] | [4]

CCN(C)/C=N/c1cc(Br)c(OC(C)Cc2cccc(F)c2)nc1C (stereo not drawn) [Q.218]
≥ 50%: [1] | [2] | [3] | [4]

CCN(C)/C=N/c1cc(Br)c(OC(C)Cc2cc(C)cc(C)c2)nc1C (stereo not drawn) [Q.219]
≥ 50%: [1] | [2] | [3] | [4]

C=CCCC(C)Oc1nc(C)c(/N=C/N(C)CC)cc1Br (stereo not drawn) [Q.220]
≥ 50%: [1] | [2] | [3] | [4]

CCN(C)/C=N/c1cc(Br)c(OC(C)Cc2cc(Cl)cc(Cl)c2)nc1C (stereo not drawn) [Q.221]
≥ 50%: [1] | [2] | [3] | [4]

CCN(C)/C=N/c1cc(Br)c(OCCC2CC2)nc1C [Q.222]
≥ 50%: [1] | [2] | [3] | [4]

CCN(C)/C=N/c1cc(Br)c(OCC(C)c2ccccc2)nc1C (stereo not drawn) [Q.223]
≥ 50%: [1] | [2] | [3] | [4]

CCN(C)/C=N/c1cc(Br)c(OCC2CCc3ccccc3C2)nc1C (stereo not drawn) [Q.224]
≥ 50%: [1] | [2] | [3] | [4]

CCN(C)/C=N/c1cc(Br)c(OC(C)C2CCc3ccccc3C2)nc1C (stereo not drawn) [Q.225]
≥ 50%: [1] | [2] | [3] | [4]

CCN(C)/C=N/c1cc(Br)c(OCC2CCCc3ccccc32)nc1C (stereo not drawn) [Q.226]
≥ 50%: [1] | [2] | [3] | [4]

CCN(C)/C=N/c1cc(Br)c(OC(C)C2CCCc3ccccc32)nc1C (stereo not drawn) [Q.227]
≥ 50%: [1] | [2] | [3] | [4]

CCc1cc(/N=C/N(C)CC)c(C)nc1OC(C)c1cc(F)cc(F)c1 (stereo not drawn) [Q.228]
≥ 50%: [1] | [2] | [3] | [4]

C#Cc1cc(/N=C/N(C)CC)c(C)nc1OC(C)c1cc(F)cc(F)c1 (stereo not drawn) [Q.229]
≥ 50%: [1] | [2] | [3] | [4]

CCN(C)/C=N/c1cc(Br)c(OC2CCC(C)=C(C)CC2)nc1C [Q.231]
≥ 50%: [1] | [2] | [3] | [4]

CCN(C)/C=N/c1cc(Br)c(OC2Cc3ccc(Cl)cc3C2)nc1C (stereo not drawn) [Q.233]
≥ 50%: [1] | [2] | [3] | [4]

CCN(C)/C=N/c1cc(Br)c(OC(C)c2ccc3c(c2)CCCC3)nc1C (stereo not drawn) [Q.238]
≥ 50%: [1] | [2] | [3] | [4]

CCN(C)/C=N/c1cc(Br)c(OC2CCCC(Oc3ccccn3)C2)nc1C (stereo not drawn) [Q.240]
≥ 50%: [1] | [2] | [3] | [4]

CCN(C)/C=N/c1cc(Br)c(OC2CCCC(Oc3ccccc3)C2)nc1C (stereo not drawn) [Q.241]
≥ 50%: [1] | [2] | [3] | [4]

CCN(C)/C=N/c1cc(Br)c(OC(C)c2ccc3cccnc3c2)nc1C (stereo not drawn) [Q.242]
≥ 50%: [1] | [2] | [3] | [4]

CCN(C)/C=N/c1cc(Br)c(OC2Cc3ccc(C)cc3C2)nc1C (stereo not drawn) [Q.243]
≥ 50%: [1] | [2] | [3] | [4]

CCN(C)/C=N/c1cc(Br)c(OC2CCOCC2)nc1C [Q.244]
≥ 50%: [1] | [2] | [3] | [4]

CCN(C)/C=N/c1cc(Br)c(OC(C)c2ccns2)nc1C (stereo not drawn) [Q.246]
≥ 50%: [1] | [2] | [3] | [4]

CCN(C)/C=N/c1cc(C(F)F)c(O[C@H]2CC[C@@H](C(C)C)CC2)nc1C [Q.247]
≥ 50%: [1] | [2] | [3] | [4]
